# Source: patent US9801901B2, “Alginate oligomers for use in overcoming multidrug resistance in bacteria” (priority 2009, dated 2017)
# Where two headings read alike, the source gives them in different places. Marks after values point to notes of the source that are not given here.
# What was measured:
# [1] = test system: Staphylococcus aureus (MRSA) U50; test: MIC-assay, Mueller-Hinton broth with G-block alginate, 384-well, OD600 (Table 12); type: cell-based; details: MRSA 1040s, U50 MDR
# Description: Minimum inhibitory concentration (MICs) of different antibiotics for strains of Streptococcus oralis and Staphylococcus aureus (MRSA) displaying MDR phenotypes in the presence of varying concentrations of OligoCF-5/20 (0-10%). (MIC values are expressed in μg ml^−1).
# [2] = test system: strains of Klebsiella pneumoniae displaying MDR phenotypes; test: MIC-assay, Mueller-Hinton broth with G-block alginate, 384-well, OD600 (Table 10); type: cell-based
# Description: Minimum inhibitory concentration (MICs) of different antibiotics for strains of Klebsiella pneumoniae displaying MDR phenotypes in the presence of varying concentrations of OligoCF-5/20 (0-10%). (MIC values are expressed in μg ml^−1).
# [3] = test system: Pseudomonas aeruginosa ATCC 39324, mucoid type strain (R79); test: MIC assay, CAMHB with alginate oligomer, no visible growth; type: cell-based; details: Pseudomonas aeruginosa, ATCC39324, Table 1, R79, read-out: MIC
# [4] = test system: Burkholderia cepacia (LMG18941, ATCC-BAA-246); test: MIC-assay, Mueller-Hinton broth with G-block alginate, 384-well, OD600
# [5] = test system: Pseudomonas aeruginosa MDR R22 from China (V1); test: MIC assay, CAMHB with alginate oligomer, no visible growth; type: cell-based; details: Pseudomonas aeruginosa, Table 1, V1 MDR R22 PA, read-out: MIC
# Description: The study described in Example 1 was repeated with the following strains of bacteria and antibiotics as detailed in Tables 4, 5 and 6.
# [6] = test system: V12 5725 (Wales) Klebsiella pneumoniae; test: as above; type: cell-based; details: Table 5, V12 MDR Kleb pneu
# [7] = test system: Acinetobacter baumannii (MDR ACB, Libya, V4); test: MIC-assay, Mueller-Hinton broth with G-block alginate, 384-well, OD600
# [8] = test system: Pseudomonas aeruginosa MDR 301 from Poland (V2); test: MIC assay, CAMHB with alginate oligomer, no visible growth; type: cell-based; details: Pseudomonas aeruginosa, Table 1, V2 MDR 301 PA, read-out: MIC
# [9] = test system: Pseudomonas aeruginosa CFA 24-1, clinical mucoid strain (R80); test: as above; type: cell-based; details: Pseudomonas aeruginosa, Table 1, R80, read-out: MIC
# [10] = test system: Burkholderia cepacia (1322, V23); test: MIC-assay, Mueller-Hinton broth with G-block alginate, 384-well, OD600
# [11] = test system: strains of E. coli displaying MDR phenotypes; test: MIC-assay, Mueller-Hinton broth with G-block alginate, 384-well, OD600 (Table 11); type: cell-based; details: Escherichia coli, Escherichia coli (5702, Wales, V11) MDR
# Description: (§1) Minimum inhibitory concentration (MICs) of different antibiotics for strains of E. coli and Providencia stuartii displaying MDR phenotypes in the presence of varying concentrations of OligoCF-5/20 (0-10%). (MIC values are expressed in μg ml^−1).
# MDR Providencia stuartii = test: as above; type: cell-based; details: Providencia stuartii (IR57 India, V7) MDR
# Description: as §1
# [12] = test system: V9 (Egypt) Acinetobacter baumannii; test: MIC assay, CAMHB with alginate oligomer, no visible growth; type: cell-based; details: Table 5, V9 MDR Acin. baum
# V22 6056 Acinetobacter = test: as above; type: cell-based, Acinetobacter lwoffii; details: Table 5, V22 MDR Acin. lwoff
# [13] = test system: Pseudomonas aeruginosa (R22, PSA, V1); test: MIC-assay, Mueller-Hinton broth with G-block alginate, 384-well, OD600
# [14] = G-block (OligoCF-5/20) 0%, read-out: MIC
# [15] = G-block (OligoCF-5/20) 2%, read-out: MIC
# [16] = Table 8, G-block (OligoCF-5/20) 6%
# [17] = Table 8, G-block (OligoCF-5/20) 10%
compound,measurement,setting,value
C[C@H]1[C@H](NC(=O)/C(=N\OC(C)(C)C(=O)O)c2csc(N)n2)C(=O)N1S(=O)(=O)O [Aztreonam],MIC,[1]; [14],1020 µg/mL
same,MIC,[1]; [15],1020 µg/mL
same,MIC,[1]; G-block (OligoCF-5/20) 6%,512 µg/mL
same,MIC,[1]; G-block (OligoCF-5/20) 10%,512 µg/mL
same,MIC,"[2]; Klebsiella pneumoniae (5712, Wales, V12) MDR, G-block (OligoCF-5/20) 0%, read-out: MIC",4 µg/mL
same,MIC,"[2]; Klebsiella pneumoniae (5712, Wales, V12) MDR, G-block (OligoCF-5/20) 2%, read-out: MIC",4 µg/mL
same,MIC,"[2]; Klebsiella pneumoniae (5712, Wales, V12) MDR, G-block (OligoCF-5/20) 6%, read-out: MIC",4 µg/mL
same,MIC,"[2]; Klebsiella pneumoniae (5712, Wales, V12) MDR, G-block (OligoCF-5/20) 10%, read-out: MIC",4 µg/mL
same,MIC,"[2]; Klebsiella pneumoniae (IR25, India, V6) MDR, G-block (OligoCF-5/20) 2%, read-out: MIC",256 µg/mL
same,MIC,"[2]; Klebsiella pneumoniae (IR25, India, V6) MDR, G-block (OligoCF-5/20) 6%",128 µg/mL
same,MIC,"[2]; Klebsiella pneumoniae (IR25, India, V6) MDR, G-block (OligoCF-5/20) 10%, read-out: MIC",64 µg/mL
same,MIC,"[2]; Klebsiella pneumoniae (K3, India, V8) MDR, G-block (OligoCF-5/20) 2%, read-out: MIC",256 µg/mL
same,MIC,"[2]; Klebsiella pneumoniae (K3, India, V8) MDR, G-block (OligoCF-5/20) 6%",128 µg/mL
same,MIC,"[2]; Klebsiella pneumoniae (K3, India, V8) MDR, G-block (OligoCF-5/20) 10%",128 µg/mL
same,MIC,[3]; OligoCF-5/20 0G,2 µg/mL
same,MIC,[3]; OligoCF-5/20 +2% G,2 µg/mL
same,MIC,[3]; OligoCF-5/20 +6% G,< 1 µg/mL
same,MIC,[3]; OligoCF-5/20 +10% G,< 1 µg/mL
same,MIC,"[4]; ATCCBAA246|LMG18941, Table 8, G-block (OligoCF-5/20) 0%",> 16 µg/mL
same,MIC,"[4]; ATCCBAA246|LMG18941, Table 8, G-block (OligoCF-5/20) 2%",> 16 µg/mL
same,MIC,"[4]; ATCCBAA246|LMG18941, Table 8, G-block (OligoCF-5/20) 6%",> 16 µg/mL
same,MIC,"[4]; ATCCBAA246|LMG18941, Table 8, G-block (OligoCF-5/20) 10%",> 16 µg/mL
same,MIC,[5]; OligoCF-5/20 0G,32 µg/mL
same,MIC,[5]; OligoCF-5/20 +2% G,16 µg/mL
same,MIC,[5]; OligoCF-5/20 +6% G,< 4 µg/mL
same,MIC,[5]; OligoCF-5/20 +10% G,< 4 µg/mL
same,MIC,"[6]; Klebsiella pneumoniae, OligoCF-5/20 0G, read-out: MIC",256 µg/mL
same,MIC,[6]; OligoCF-5/20 +2% G,512^‡ μg/ml
same,MIC,[6]; OligoCF-5/20 +6% G,128^† μg/ml
same,MIC,[6]; OligoCF-5/20 +10% G,64^† μg/ml
same,MIC,"[7]; Table 9, G-block (OligoCF-5/20) 0%",4 µg/mL
same,MIC,"[7]; Table 9, G-block (OligoCF-5/20) 2%",4 µg/mL
same,MIC,"[7]; Table 9, G-block (OligoCF-5/20) 6%",1 µg/mL
same,MIC,"[7]; Table 9, G-block (OligoCF-5/20) 10%",0.5 µg/mL
same,MIC,[8]; OligoCF-5/20 0G,64 µg/mL
same,MIC,[8]; OligoCF-5/20 +2% G,16 µg/mL
same,MIC,[8]; OligoCF-5/20 +6% G,8 µg/mL
same,MIC,[8]; OligoCF-5/20 +10% G,8 µg/mL
same,MIC,[9]; OligoCF-5/20 0G,< 1 µg/mL
same,MIC,[9]; OligoCF-5/20 +2% G,< 1 µg/mL
same,MIC,[9]; OligoCF-5/20 +6% G,< 1 µg/mL
same,MIC,[9]; OligoCF-5/20 +10% G,< 1 µg/mL
same,MIC,"[10]; Table 8, G-block (OligoCF-5/20) 0%",> 16 µg/mL
same,MIC,"[10]; Table 8, G-block (OligoCF-5/20) 2%",> 16 µg/mL
same,MIC,[10]; [16],> 16 µg/mL
same,MIC,[10]; [17],> 16 µg/mL
same,MIC,[11]; [14],256 µg/mL
same,MIC,[11]; [15],256 µg/mL
same,MIC,[11]; G-block (OligoCF-5/20) 6%,128 µg/mL
same,MIC,"[11]; G-block (OligoCF-5/20) 10%, read-out: MIC",64 µg/mL
same,MIC,MDR Providencia stuartii; G-block (OligoCF-5/20) 0%,> 1020 µg/mL
same,MIC,MDR Providencia stuartii; G-block (OligoCF-5/20) 2%,> 1020 µg/mL
same,MIC,MDR Providencia stuartii; G-block (OligoCF-5/20) 6%,> 1020 µg/mL
same,MIC,MDR Providencia stuartii; G-block (OligoCF-5/20) 10%,> 1020 µg/mL
same,MIC,"[12]; Acinetobacter baumannii, OligoCF-5/20 0G, read-out: MIC",> 512 µg/mL
same,MIC,[12]; OligoCF-5/20 +2% G,512^† μg/ml
same,MIC,[12]; OligoCF-5/20 +6% G,256^† μg/ml
same,MIC,[12]; OligoCF-5/20 +10% G,128^† μg/ml
same,MIC,"V22 6056 Acinetobacter; Acinetobacter, OligoCF-5/20 0G, read-out: MIC",256 µg/mL
same,MIC,V22 6056 Acinetobacter; OligoCF-5/20 +2% G,128^† μg/ml
same,MIC,V22 6056 Acinetobacter; OligoCF-5/20 +6% G,64^† μg/ml
same,MIC,V22 6056 Acinetobacter; OligoCF-5/20 +10% G,32^† μg/ml
same,MIC,[13]; [16],0.0625 µg/mL
same,MIC,[13]; [17],0.0312 µg/mL
